Laboratory results from patent US20230151003A1, “COMPOUNDS AND METHODS OF USE” (Exelixis, Inc., priority 2020, published 2023).

Target: T1, AXL (Homo sapiens, UniProt P30530)
T1 construct: endogenous in cells; host or cells: A-172 glioblastoma cells (ATCC #CRL-1620)
T1 sequence (P30530 26-894): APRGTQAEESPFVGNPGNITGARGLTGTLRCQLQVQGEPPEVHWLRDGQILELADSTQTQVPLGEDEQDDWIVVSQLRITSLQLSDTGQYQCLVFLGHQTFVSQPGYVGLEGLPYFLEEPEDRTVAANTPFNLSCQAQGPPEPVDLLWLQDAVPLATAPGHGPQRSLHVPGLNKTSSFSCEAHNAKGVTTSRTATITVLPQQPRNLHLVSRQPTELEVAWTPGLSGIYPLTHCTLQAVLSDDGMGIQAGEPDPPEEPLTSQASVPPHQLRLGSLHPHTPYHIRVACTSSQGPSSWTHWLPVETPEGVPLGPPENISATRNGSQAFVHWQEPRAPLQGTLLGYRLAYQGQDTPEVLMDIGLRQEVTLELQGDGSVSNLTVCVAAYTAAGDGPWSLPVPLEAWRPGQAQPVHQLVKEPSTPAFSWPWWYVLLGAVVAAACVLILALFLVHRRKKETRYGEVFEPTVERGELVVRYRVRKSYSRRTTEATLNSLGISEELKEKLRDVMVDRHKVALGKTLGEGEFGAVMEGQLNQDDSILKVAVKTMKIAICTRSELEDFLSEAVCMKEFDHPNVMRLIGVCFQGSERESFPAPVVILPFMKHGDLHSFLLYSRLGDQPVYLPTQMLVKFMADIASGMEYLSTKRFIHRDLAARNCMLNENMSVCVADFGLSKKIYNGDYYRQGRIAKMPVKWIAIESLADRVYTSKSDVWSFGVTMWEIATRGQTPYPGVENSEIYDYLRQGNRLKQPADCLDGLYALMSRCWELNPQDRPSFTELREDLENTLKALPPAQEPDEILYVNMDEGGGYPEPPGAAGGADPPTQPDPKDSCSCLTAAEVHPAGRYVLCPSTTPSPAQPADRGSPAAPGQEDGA
Assay: AXL autophosphorylation ELISA in A-172 cells
Format: cell-based
Conditions: Table 3 Cellular Activities, Gas6-stimulated, phospho-AXL ELISA
Summary of the method: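 Phospho-AXL in lysates measured by ELISA after Gas6 stimulation (1 μg/mL, 15 min) of A-172 cells pre-incubated 1 h with an 8-point compound dilution series in 0.3% DMSO after 24 h serum starvation. IC50 by 4-parameter logistic fit, with DMSO-treated and reference-inhibitor wells as 100% and 0% activity.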

IC50, ≤ 100 nM:
COc1cc2nccc(Oc3ccc(NC(=O)c4c(C)nc(C)c(-c5ccc(C)o5)c4O)cc3F)c2nc1OC [Compound 110, N-[4-[(6,7-Dimethoxy-1,5-naphthyridin-4-yl)oxy]-3-fluoro-phenyl]-4-hydroxy-2,6-dimethyl-5-(5-methyl-2-furyl)pyridine-3-carboxamide]
COc1cc2nccc(Oc3ccc(NC(=O)c4cnc(C)c(-c5nccs5)c4O)cc3F)c2nc1OC [Compound 143, N-[4-[(6,7-Dimethoxy-1,5-naphthyridin-4-yl)oxy]-3-fluorophenyl]-4-hydroxy-6-methyl-5-(1,3-thiazol-2-yl)pyridine-3-carboxamide]
CCc1ccc(-c2c(C)ncc(C(=O)Nc3ccc(Oc4ccnc5cc(OC)c(OC)nc45)c(F)c3)c2O)o1 [Compound 153, N-[4-[(6,7-Dimethoxy-1,5-naphthyridin-4-yl)oxy]-3-fluorophenyl]-5-(5-ethylfuran-2-yl)-4-hydroxy-6-methylpyridine-3-carboxamide]
COc1cnc2c(Oc3ccc(NC(=O)c4cnc(C)c(-c5cc(C)cs5)c4O)cc3F)ccnc2c1 [Compound 102, N-[3-Fluoro-4-[(7-methoxy-1,5-naphthyridin-4-yl)oxy]phenyl]-4-hydroxy-6-methyl-5-(4-methyl-2-thienyl) pyridine-3-carboxamide]
COc1cc2nccc(Oc3ccc(NC(=O)c4cc(Br)c(C)n(-c5ccc(F)cn5)c4=O)cc3F)c2nc1OC [Compound 55, 5-Bromo-N-[4-[(6,7-dimethoxy-1,5-naphthyridin-4-yl)oxy]-3-fluorophenyl]-1-(5-fluoropyridin-2-yl)-6-methyl-2-oxopyridine-3-carboxamide]
COc1cc2nccc(Oc3cc(F)c(NC(=O)c4c(C)n(C)c(C)c(-c5ccco5)c4=O)cc3F)c2nc1OC [Compound 163, N-[4-[(6,7-Dimethoxy-1,5-naphthyridin-4-yl)oxy]-2,5-difluorophenyl]-5-(furan-2-yl)-1,2,6-trimethyl-4-oxopyridine-3-carboxamide]
COc1cc2nccc(Oc3ccc(NC(=O)c4c(C)nc(C)c(-c5cccs5)c4O)cc3F)c2nc1OC [Compound 107]
COc1cc2nccc(Oc3ccc(NC(=O)c4c(C)nc(C)c(-c5ccc(C)s5)c4O)cc3F)c2nc1OC [Compound 111, N-[4-[(6,7-Dimethoxy-1,5-naphthyridin-4-yl)oxy]-3-fluoro-phenyl]-4-hydroxy-2,6-dimethyl-5-(5-methyl-2-thienyl)pyridine-3-carboxamide]
COc1cc2nccc(Oc3ccc(NC(=O)c4c(C)nc(C)c(-c5cc(C)cs5)c4O)cc3F)c2nc1OC [Compound 137, N-[4-[(6,7-Dimethoxy-1,5-naphthyridin-4-yl)oxy]-3-fluorophenyl]-4-hydroxy-2,6-dimethyl-5-(4-methylthiophen-2-yl)pyridine-3-carboxamide]
COc1cc2nccc(Oc3ccc(NC(=O)c4cnc(C)c(-c5ccoc5)c4O)cc3F)c2nc1OC [Compound 95, N-[4-[(6,7-Dimethoxy-1,5-naphthyridin-4-yl)oxy]-3-fluoro-phenyl]-5-(3-furyl)-4-hydroxy-6-methyl-pyridine-3-carboxamide]
COc1cc2nccc(Oc3ccc(NC(=O)c4c(C)nc(C)c(-c5ccsc5)c4O)cc3F)c2nc1OC [Compound 106]
COc1cc2nccc(Oc3ccc(NC(=O)c4cn(CCF)c(C)c(-c5ccsc5)c4=O)cc3F)c2nc1OC [Compound 332, N-[4-[(6,7-Dimethoxy-1,5-naphthyridin-4-yl)oxy]-3-fluorophenyl]-1-(2-fluoroethyl)-6-methyl-4-oxo-5-thiophen-3-ylpyridine-3-carboxamide]
COc1cnc2c(Oc3ccc(NC(=O)c4cnc(C)c(-c5cccs5)c4O)cc3F)ccnc2c1 [Compound 100, N-[3-Fluoro-4-[(7-methoxy-1,5-naphthyridin-4-yl)oxy]phenyl]-4-hydroxy-6-methyl-5-(2-thienyl)pyridine-3-carboxamide]
COCc1nc(C)c(-c2ccc(C)o2)c(O)c1C(=O)Nc1ccc(Oc2ccnc3cc(OC)c(OC)nc23)c(F)c1 [Compound 117, N-[4-[(6,7-Dimethoxy-1,5-naphthyridin-4-yl)oxy]-3-fluorophenyl]-4-hydroxy-2-(methoxymethyl)-6-methyl-5-(5-methylfuran-2-yl)pyridine-3-carboxamide]
COc1cc2nccc(Oc3ccc(NC(=O)c4c(C)ncc(-c5ccco5)c4O)cc3F)c2nc1OC [Compound 119, N-[4-[(6,7-Dimethoxy-1,5-naphthyridin-4-yl)oxy]-3-fluorophenyl]-5-(furan-2-yl)-4-hydroxy-2-methylpyridine-3-carboxamide]
COc1cc2nccc(Oc3ccc(NC(=O)c4cnc(C)c(-c5ccco5)c4O)cc3F)c2nc1OC [Compound 89, N-[4-[(6,7-Dimethoxy-1,5-naphthyridin-4-yl)oxy]-3-fluorophenyl]-5-(furan-2-yl)-4-hydroxy-6-methylpyridine-3-carboxamide]
COc1cnc2c(Oc3ccc(NC(=O)c4cnc(C)c(-c5ccc(C)s5)c4O)cc3F)ccnc2c1 [Compound 101, N-[3-Fluoro-4-[(7-methoxy-1,5-naphthyridin-4-yl)oxy]phenyl]-4-hydroxy-6-methyl-5-(5-methyl-2-thienyl) pyridine-3-carboxamide]
COc1cnc2c(Oc3ccc(NC(=O)c4cn(CCF)c(C)c(-c5ccc(C)s5)c4=O)cc3F)ccnc2c1 [Compound 329, 1-(2-Fluoroethyl)-N-[3-fluoro-4-[(7-methoxy-1,5-naphthyridin-4-yl)oxy]phenyl]-6-methyl-5-(5-methylthiophen-2-yl)-4-oxopyridine-3-carboxamide]
